According to patent publication US6492124B1, “Trance activated signal transduction pathways in osteoclasts” (The Rockefeller University, priority 1999, dated 2002):

How the values were obtained:
[1] = target: T1, TRANCE-R signaling complex (Mus musculus, UniProt O35305); assay: TRANCE-R immunoprecipitation from dendritic cells: co-precipitated TRAF6/c-Src and SAM68 kinase assay; format: cell-based
T1 construct: the endogenous TRANCE-R was immunoprecipitated from the extracts (2 mg of total protein); endogenous in cells; host or cells: mature bone marrow-derived dendritic cells of C57BL/6 mice
Protocol: FIG. 5. Ligand dependant recruitment of endogenous TRAF6 and c-Src proteins to the TRANCE-R signaling complex. (A) Dendritic cells were stimulated with TRANCE (1 μg/ml) for the indicated times, lysed, and c-Src was immunoprecipitated from the extracts (400 μg total protein), using an anti-c-Src-specific monoclonal antibody (327). PTK activity of the c-Src immunoprecipitates was measured by in vitro kinase assays using SAM68 as a PTK substrate. The degree of SAM68 phosphorylation (SAM68^P) was determined by Western blot analysis using a phospho-tyrosine specific antibody (4G10) followed by densitometry. (B) Dendritic cells (3×10^7) were treated with TRANCE (1 μg/ml) for 5 minutes or left untreated (0 minutes). […] The degree of SAM68 phosphorylation (SAM68^P) was determined as in (A). The presence of endogenous TRAF6 or c-Src in the remaining α-TRANCE-R immunoprecipitates (IP) were analyzed by Western blotting using TRAF6 (H-274) and c-Src specific antibodies (N16), respectively, as indicated. […]
For the in vitro kinase-assays in FIGS. 3A, 4D, and 5B the beads were washed twice with extraction buffer and three times with kinase buffer (30 mM HEPES.NaOH (pH 7.4), 20 mM MgCl2, 2 mM MnCl2, 1 mM dithiothreitol). […] Phosphorylation of SAM68 was detected by autoradiography or by probing Western blots with 4G10. […]

[2] = tested on: mature osteoclasts; assay: Osteoclast survival assay (TRAP solution assay); format: cell-based, mouse; details: 24 hours; TRANCE 5 μg/ml or CSF-1 10 ng/ml
Protocol: TRAP solution assays were performed and percent survival calculated. The experiment was performed in triplicate and the mean values with positive standard deviations are shown. […] (E) Mature osteoclasts were washed extensively and then cultured for an additional 24 hr in media without (−) or with TRANCE (5 μg/ml; +) in the absence or presence of increasing doses (200 nM and 800 nM) of LY294002. TRAP solution assays were performed and percent survival was as described in Experimental Procedures. The experiment was performed in triplicate and the mean values with positive standard deviations are shown.
Osteoclast survival assays. In vitro differentiated mature osteoclasts were washed 3 times in media then further cultured for 24 hr in media alone (control) or in media with TRANCE (5 μg/ml) or CSF-1 (10 ng/ml) in the presence or absence of LY294002 as indicated.
Specific cell survival (%)=(A405, 24 hr−A405. background)*100/(A405, 0 hr−A405, background)

[3] = tested on: NF-κB; assay: NF-κB activation measured by IκB-α phosphorylation/degradation in osteoclasts and dendritic cells (Western blot); format: cell-based, mouse; details: osteoclasts and dendritic cells, beginning at 10 min of TRANCE, coinciding with peak of IκB-α phosphorylation
Protocol: (§1) FIG. 1. […] (A) Mature bone marrow-derived osteoclasts were stimulated for the indicated times with recombinant hCD8-TRANCE (TRANCE; 1 μg/ml). Levels of phosphorylated forms of p44/p42 ERK (p44 ERK^P and p42 ERK^P), IκBα (IκB-α^P) and PKB (PKB^P) in whole cell extracts were determined using phospho-peptide-specific antibodies as indicated in the figure. […] (B) as in (A) except the use of mature bone marrow-derived dendritic cells instead of osteoclasts.
(§2) FIG. 2. […] (A) Osteoclasts were serum starved and then pretreated for 90 min with LY294002 (10 μM), Herbimycin A (Herb. A; 10 μM), and PP1 (10 μM) inhibitors which are specific for PI3-kinase, PTKs, and Src-family kinases, respectively, were stimulated for indicated times with TRANCE (1 μg/ml). Levels of phosphorylated p44/p42 ERK, PKB, and IκB-α were determined as described in FIG. 1. Cells pretreated with vehicle (DMSO) were used as a negative control. (B) as in (A) except the use of mature bone marrow-derived dendritic cells.
(§3) Primary cells and cell lines. […] In brief, bone marrow cells from tibiae and femur of 4-6 week old mice (C57BL/6, Jackson Laboratories) were cultured overnight in media (α-MEM, 10% FCS) in the presence of CSF-1 (5 ng/ml). […] For experiments described in this study, only adherent cells were used after extensive washing. […] After allowing them adhere for 2 hours to a tissue culture dish, contaminating floater cells were washed away and mature dendritic cells were obtained by overnight culture.
Cell stimulation, cell transfection and in vitro assays. In vitro differentiated mature dendritic cells, macrophages and osteoclasts were washed to remove exogenous growth factors, cultured in media with low serum (0.5% FCS, 6 hours), then stimulated by adding various cytokines in the presence or absence of inhibitors for various times as indicated. After stimulation, the cells were washed in ice-cold PBS, and subjected to Western blot analysis or immunoprecipitation as described below. […]

[4] = tested on: PKB; assay: PKB activation in osteoclasts (phospho-PKB Western blot); format: cell-based, mouse
Protocol: as §1, §2, §3
Cell stimulation, cell transfection and in vitro assays. In vitro differentiated mature dendritic cells, macrophages and osteoclasts were washed to remove exogenous growth factors, cultured in media with low serum (0.5% FCS, 6 hours), then stimulated by adding various cytokines in the presence or absence of inhibitors for various times as indicated. After stimulation, the cells were washed in ice-cold PBS, and subjected to Western blot analysis or immunoprecipitation as described below.
All cells were harvested and lysed in extraction buffer (20 mM HEPES NaOH (pH 7.4), 150 mM NaCl, 1% Triton X-100, 10% glycerol, 10 mM EDTA, 1 mM Na3VO4, 1 mM phenylmethylsulfonylfluoride, 1 μg/ml leupeptin, and 0.1 U of aprotinin per ml) and cleared by centrifugation to obtain whole cell extracts. Protein assays were performed to ensure equal amounts of lysates were used in each sample.

TNF-related activation-induced cytokine [TRANCE]
TRAF6 and c-Src in the TRANCE-R complex ([1]; TRANCE 1 μg/ml 5 minutes vs untreated): readily detected | PTK activity of the receptor complex towards SAM68 ([1]; TRANCE 1 μg/ml 5 minutes, in vitro kinase assay): acquired PTK activity | cytokine-promoted survival in c-Src−/− osteoclasts compared to wild-type [2]: reduced | total cellular IκB-α [3]: decrease | activation of PKB in c-Src−/− osteoclasts compared with wild-type ([4]; TRANCE 5 μg/ml, 10 min): substantially reduced | time by which PKB activity subsided ([4]; osteoclasts, TRANCE stimulation): ≤ 60 min | phosphorylated form of PKB upon TRANCE stimulation ([4]; osteoclasts, after 5 minutes, TRANCE 1 μg/ml): increase
